Patent publication US12421253B2 (Mirati Therapeutics, Inc., priority 2020, dated 2025)

Experiments:
[1] = biological target: T1, KRas^G12D (Homo sapiens, UniProt P01116, G12D); assay: KRas binding assay (TR-FRET displacement of Cy5 labelled tracer)
T1 construct: […]; biotin (biotinylated); purchased Accelegan Inc

[2] = biological target: T2, KRas^G12R (Homo sapiens, UniProt P01116, G12R); assay: as above
T2 construct: […]; biotin (biotinylated); purchased Accelegan Inc

[3] = biological target: T3, KRas^G12V (Homo sapiens, UniProt P01116, G12V); assay: as above
T3 construct: […]; biotin (biotinylated); purchased Accelegan Inc

[4] = system: A549 (G12S) cells, phospho-ERK; assay: Inhibition of KRas-mediated phosphorylation of ERK (phospho-ERK/GAPDH antibody detection, LI-COR); type: cell-based; details: Homo sapiens, 3 hours
Summary of the method: (§1)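 Cells seeded 20,000/well, attached 12-14 h, then compound (0.5% DMSO) for 3 h. Formaldehyde-fixed, methanol-permeabilized cells stained for phospho-ERK (Thr202/Tyr204) and GAPDH; infrared imaging. Ratio expressed as % of DMSO control; IC50 from 4-parameter fit.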

[5] = system: HCT116 (G13D) cells, phospho-ERK; assay: as above; type: cell-based; details: Homo sapiens, HCT-116, 3 hours
Summary of the method: as §1

[6] = system: NCI-H358 (G12C) cells, phospho-ERK; assay: as above; type: cell-based; details: Homo sapiens, 3 hours
Summary of the method: as §1

[7] = system: NCI-H727 (G12V) cells, phospho-ERK; assay: as above; type: cell-based; details: Homo sapiens, 3 hours
Summary of the method: as §1

[8] = system: PSN-1 (G12R) cells, phospho-ERK; assay: as above; type: cell-based; details: Homo sapiens, PSN1, 3 hours
Summary of the method: as §1

[9] = system: AsPC-1 (G12D) cells, phospho-ERK; assay: as above; type: cell-based; details: Homo sapiens, ASPC1, 3 hours
Summary of the method: as §1

[10] = system: NCI-H460 (Q61H) cells, phospho-ERK; assay: as above; type: cell-based; details: Homo sapiens, 3 hours
Summary of the method: as §1

[11] = system: A549 cells, pERK; assay: Inhibition of KRas phosphorylation of ERK (Cisbio HTRF Advanced pERK assay); type: cell-based; details: Homo sapiens, 3 hrs, read-out: Inhibition (HTRF IC50 nM) of KRas-mediated Phosphorylation of ERK, A549
Summary of the method: (§2)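 pERK measured by HTRF in lysates from cells treated 3 h with compound, 10 uM top, 3-fold steps, 10 doses, 0.8% DMSO final. Cells (6,000/well, RPMI 10% FBS) had been plated overnight at 37 °C; 0.2 uM trametinib defined minimum signal; antibody detection 2 h at room temperature.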

[12] = system: ASPC1 cells, pERK; assay: as above; type: cell-based; details: Homo sapiens, ASPC1, 3 h, AsPC-1 cells, read-out: Inhibition (HTRF IC50 nM) of KRas-mediated Phosphorylation of ERK, AsPC-1
Summary of the method: as §2

[13] = system: H358 cells, pERK; assay: as above; type: cell-based; details: Homo sapiens, NCI-H358, 3 hrs, read-out: Inhibition (HTRF IC50 nM) of KRas-mediated Phosphorylation of ERK, H358
Summary of the method: as §2

[14] = system: H460 cells, pERK; assay: as above; type: cell-based; details: Homo sapiens, NCI-H460, 3 hrs, read-out: Inhibition (HTRF IC50 nM) of KRas-mediated Phosphorylation of ERK, H460
Summary of the method: as §2

[15] = system: H727 cells, pERK; assay: as above; type: cell-based; details: Homo sapiens, NCI-H727, 3 h, read-out: Inhibition (HTRF IC50 nM) of KRas-mediated Phosphorylation of ERK, H727
Summary of the method: as §2

[16] = system: HCT116 cells, pERK; assay: as above; type: cell-based; details: Homo sapiens, HCT-116, 3 hrs, read-out: Inhibition (HTRF IC50 nM) of KRas-mediated Phosphorylation of ERK, HCT116
Summary of the method: as §2

[17] = system: MKN1 cells, pERK; assay: as above; type: cell-based; details: Homo sapiens, MKN-1, 3 h, read-out: Inhibition (HTRF IC50 nM) of KRas-mediated Phosphorylation of ERK, MKN1
Summary of the method: as §2

[18] = system: PSN1 cells, pERK; assay: as above; type: cell-based; details: Homo sapiens, PSN1, 3 h, read-out: Inhibition (HTRF IC50 nM) of KRas-mediated Phosphorylation of ERK, PSN1
Summary of the method: as §2

[19] = biological target: T4, KRas^WT (Homo sapiens, UniProt P01116); assay: KRas binding assay (TR-FRET displacement of Cy5 labelled tracer)
T4 construct: […]; biotin (biotinylated); purchased Accelegan Inc

[20] = biological target: T5, KRas^G12A (Homo sapiens, UniProt P01116, G12A); assay: as above
T5 construct: […]; biotin (biotinylated); purchased Accelegan Inc

[21] = biological target: T6, KRas^G12S (Homo sapiens, UniProt P01116, G12S); assay: as above
T6 construct: […]; biotin (biotinylated); purchased Accelegan Inc

[22] = biological target: KRas^G12C (Homo sapiens, UniProt P01116, G12C); assay: biochemical
[23] = biological target: KRas^G13D (Homo sapiens, UniProt P01116, G13D); assay: biochemical
[24] = biological target: KRas^Q61H (Homo sapiens, UniProt P01116, Q61H); assay: biochemical
KRas^Q61H, sequence (P01116 1-169 isoform P01116-2 Q61H): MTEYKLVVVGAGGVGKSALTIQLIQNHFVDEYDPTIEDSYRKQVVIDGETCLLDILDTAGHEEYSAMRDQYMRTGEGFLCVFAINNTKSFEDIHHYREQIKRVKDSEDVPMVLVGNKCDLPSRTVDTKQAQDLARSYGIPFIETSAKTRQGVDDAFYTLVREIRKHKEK

T2 sequence (P01116 1-169 isoform P01116-2 G12R): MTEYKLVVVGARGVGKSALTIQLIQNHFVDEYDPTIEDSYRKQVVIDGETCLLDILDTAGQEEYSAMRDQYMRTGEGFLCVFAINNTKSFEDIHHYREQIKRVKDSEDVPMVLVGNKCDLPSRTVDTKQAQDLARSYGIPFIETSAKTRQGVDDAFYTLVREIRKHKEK
T3 sequence (P01116 1-169 isoform P01116-2 G12V): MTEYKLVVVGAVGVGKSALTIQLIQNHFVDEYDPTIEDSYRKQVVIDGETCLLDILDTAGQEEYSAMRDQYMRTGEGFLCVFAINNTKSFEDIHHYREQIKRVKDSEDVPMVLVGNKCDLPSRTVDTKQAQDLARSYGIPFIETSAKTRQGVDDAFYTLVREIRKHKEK
T1 sequence (P01116 1-169 isoform P01116-2 G12D): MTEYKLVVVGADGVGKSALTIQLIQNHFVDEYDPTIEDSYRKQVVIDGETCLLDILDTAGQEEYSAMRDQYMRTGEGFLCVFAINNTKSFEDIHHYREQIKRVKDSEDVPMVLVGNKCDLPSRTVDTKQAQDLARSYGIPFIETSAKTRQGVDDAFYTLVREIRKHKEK
T5 sequence (P01116 1-169 isoform P01116-2 G12A): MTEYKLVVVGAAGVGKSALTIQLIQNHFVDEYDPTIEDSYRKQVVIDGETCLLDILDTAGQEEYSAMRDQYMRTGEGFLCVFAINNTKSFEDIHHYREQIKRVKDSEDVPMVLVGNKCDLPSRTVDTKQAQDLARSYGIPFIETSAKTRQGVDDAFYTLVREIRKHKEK
T6 sequence (P01116 1-169 isoform P01116-2 G12S): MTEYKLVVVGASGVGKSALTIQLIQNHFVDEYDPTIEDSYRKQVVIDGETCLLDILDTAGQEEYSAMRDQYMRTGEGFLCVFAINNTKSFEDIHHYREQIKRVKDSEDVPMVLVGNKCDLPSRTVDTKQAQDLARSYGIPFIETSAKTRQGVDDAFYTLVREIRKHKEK
KRas^G13D, sequence (P01116 1-169 isoform P01116-2 G13D): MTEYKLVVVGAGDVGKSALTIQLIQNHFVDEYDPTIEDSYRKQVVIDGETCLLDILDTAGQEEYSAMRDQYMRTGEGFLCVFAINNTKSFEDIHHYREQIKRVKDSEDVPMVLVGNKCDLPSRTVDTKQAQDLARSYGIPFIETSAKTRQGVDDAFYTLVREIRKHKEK
T4 sequence (P01116 1-169 isoform P01116-2): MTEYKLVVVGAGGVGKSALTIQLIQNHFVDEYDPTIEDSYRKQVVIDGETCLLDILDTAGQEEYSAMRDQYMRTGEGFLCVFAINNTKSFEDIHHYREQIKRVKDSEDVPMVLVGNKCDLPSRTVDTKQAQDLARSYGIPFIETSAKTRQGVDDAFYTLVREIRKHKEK
KRas^G12C, sequence (P01116 1-169 isoform P01116-2 G12C): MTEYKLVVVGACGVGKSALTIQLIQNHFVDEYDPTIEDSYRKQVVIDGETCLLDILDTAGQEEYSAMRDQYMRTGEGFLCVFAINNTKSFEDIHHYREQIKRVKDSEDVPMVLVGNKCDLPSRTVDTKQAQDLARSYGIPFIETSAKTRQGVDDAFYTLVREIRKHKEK

| IC50 [11] [nM] | IC50 [12] [nM] | IC50 [13] [nM] | IC50 [14] [nM] | IC50 [15] [nM] | IC50 [16] [nM] | IC50 [17] [nM] | IC50 [18] [nM] | SMILES | IC50 [1] [nM] | IC50 [2] [nM] | IC50 [3] [nM] | IC50 [4] [nM] | IC50 [5] [nM] | IC50 [6] [nM] | IC50 [7] [nM] | IC50 [8] [nM] | IC50 [9] [nM] | IC50 [10] [nM] | also measured |
| --- | --- | --- | --- | --- | --- | --- | --- | --- | --- | --- | --- | --- | --- | --- | --- | --- | --- | --- | --- |
|  |  |  |  |  |  |  |  | CCc1c(F)ccc2cc(O)cc(N3CCc4c(nc(OC[C@@]56CCCN5C[C@H](F)C6)nc4N4CCOCC(C)(O)C4)C3)c12 (stereo partly drawn) [Example 20, 4-(7-(8-ethyl-7-fluoro-3-hydroxynaphthalen-1-yl)-2-(((2R,7aS)-2-fluorohexahydro-1H-pyrrolizin-7a-yl)methoxy)-5,6,7,8-tetrahydropyrido[3,4-d]pyrimidin-4-yl)-6-methyl-1,4-oxazepan-6-ol] | ≤ 2 | 52 | ≤ 2 | 446 | 860 | 314 | 747 | > 10000 |  |  |  |
|  |  |  |  |  |  |  |  | CCc1c(F)ccc2cc(O)cc(N3CCc4c(nc(OC[C@@]56CCCN5C[C@H](F)C6)nc4NCc4cccnc4N)C3)c12 [Example 17, 4-(4-(((2-aminopyridin-3-yl)methyl)amino)-2-(((2R,7aS)-2-fluorohexahydro-1H-pyrrolizin-7a-yl)methoxy)-5,6-dihydropyrido[3,4-d]pyrimidin-7(8H)-yl)-5-ethyl-6-fluoronaphthalen-2-ol] | 26 | ≤ 2 | ≤ 2 | 189 | 10000 | 232 | 1130 | > 10000 |  |  |  |
| 25 | 15 | 11 | 69 | 81 | 125 | 4 | 325 | CCc1c(F)ccc2cc(O)cc(N3CCc4c(nc(OC[C@@]56CCCN5C[C@H](F)C6)nc4N4CCCC5(CNC(=O)N5)C4)C3)c12 (stereo partly drawn) [Example 62, 7-(7-(8-ethyl-7-fluoro-3-hydroxynaphthalen-1-yl)-2-(((2R,7aS)-2-fluorohexahydro-1H-pyrrolizin-7a-yl)methoxy)-5,6,7,8-tetrahydropyrido[3,4-d]pyrimidin-4-yl)-1,3,7-triazaspiro[4.5]decan-2-one] | ≤ 2 | ≤ 2 | ≤ 2 |  |  |  |  |  |  |  |  |
| 201 | 43 | 65 | 242 | 262 | 441 | 31 | 2500 | CCc1c(F)ccc2cc(O)cc(N3CCc4c(nc(OCC5(CN(C)C)CC5)nc4N4CCC[C@@](C)(O)C4)C3)c12 [Example 199, (R)-1-(2-((1-((dimethylamino)methyl)cyclopropyl)methoxy)-7-(8-ethyl-7-fluoro-3-hydroxynaphthalen-1-yl)-5,6,7,8-tetrahydropyrido[3,4-d]pyrimidin-4-yl)-3-methylpiperidin-3-ol] | ≤ 2 | ≤ 2 | ≤ 2 |  |  |  |  |  |  |  |  |
|  |  |  |  |  |  |  |  | CCc1c(F)ccc2cc(O)cc(N3CCc4c(nc(OCC56CCCN5CCC6)nc4N4CCC[C@@](C)(O)C4)C3)c12 [Example 1, (R)-1-(7-(8-ethyl-7-fluoro-3-hydroxynaphthalen-1-yl)-2-((hexahydro-1H-pyrrolizin-7a-yl)methoxy)-5,6,7,8-tetrahydropyrido[3,4-d]pyrimidin-4-yl)-3-methylpiperidin-3-ol] | ≤ 2 | ≤ 2 | ≤ 2 | 1020 | 601 | 236 | 1260 | 1400 | 398 | 357 | IC50 [19]: ≤ 2 nM; IC50 [20]: ≤ 2 nM; IC50 [21]: ≤ 2 nM; IC50 [22]: ≤ 2 nM; IC50 [23]: ≤ 2 nM; IC50 [24]: ≤ 2 nM |
| 32 | 10 | 8 | 59 | 59 | 126 | 7 | 148 | O=S1(=O)NCC2(CCCN(c3nc(OC[C@@]45CCCN4C[C@H](F)C5)nc4c3CCN(c3cc(O)cc5ccc(F)c(Cl)c35)C4)C2)N1 (stereo partly drawn) [Example 72, 7-(7-(8-chloro-7-fluoro-3-hydroxynaphthalen-1-yl)-2-(((2R,7aS)-2-fluorohexahydro-1H-pyrrolizin-7a-yl)methoxy)-5,6,7,8-tetrahydropyrido[3,4-d]pyrimidin-4-yl)-2-thia-1,3,7-triazaspiro[4.5]decane 2,2-dioxide] | ≤ 2 | ≤ 2 | ≤ 2 |  |  |  |  |  |  |  |  |
| 14 | 49 | 12 | 26 | 176 | 49 | 49 | 80.5 | CCc1c(F)ccc2cc(O)cc(N3CCc4c(nc(OCC5(CN(C)C)CC5)nc4N4CCCC5(C4)NC(=O)NC5=O)C3)c12 (centres unmarked) [Example 201, 7-(2-((1-((dimethylamino)methyl)cyclopropyl)methoxy)-7-(8-ethyl-7-fluoro-3-hydroxynaphthalen-1-yl)-5,6,7,8-tetrahydropyrido[3,4-d]pyrimidin-4-yl)-1,3,7-triazaspiro[4.5]decane-2,4-dione] | ≤ 2 | 4 | ≤ 2 |  |  |  |  |  |  |  |  |

| SMILES | IC50 [11] [nM] | IC50 [12] [nM] | IC50 [13] [nM] | IC50 [14] [nM] | IC50 [15] [nM] | IC50 [16] [nM] | IC50 [17] [nM] | IC50 [18] [nM] | IC50 [1] [nM] | IC50 [2] [nM] | IC50 [3] [nM] | IC50 [4] [nM] | IC50 [5] [nM] | IC50 [6] [nM] | IC50 [7] [nM] | IC50 [8] [nM] | IC50 [9] [nM] | IC50 [10] [nM] | also measured |
| --- | --- | --- | --- | --- | --- | --- | --- | --- | --- | --- | --- | --- | --- | --- | --- | --- | --- | --- | --- |
| CCc1c(F)ccc2cc(O)cc(N3CCc4c(nc(OC[C@@]56CCCN5C[C@H](F)C6)nc4N4CCCn5nc(CO)cc5C4)C3)c12 [Example 34, 5-ethyl-6-fluoro-4-(2-(((2R,7aS)-2-fluorohexahydro-1H-pyrrolizin-7a-yl)methoxy)-4-(2-(hydroxymethyl)-7,8-dihydro-4H-pyrazolo[1,5-a][1,4]diazepin-5(6H)-yl)-5,6-dihydropyrido[3,4-d]pyrimidin-7(8H)-yl)naphthalen-2-ol] | 351 | 31 | 38 | 784 | 217 | 1270 | 134 | ≥ 10000 | ≤ 2 | ≤ 2 | ≤ 2 |  |  |  | 1040 |  | 258 | 774 |  |
| CCc1c(F)ccc2cc(O)cc(N3CCc4c(nc(OC[C@@]56CCCN5C[C@H](F)C6)nc4N4CCCC5(C4)NC(=O)NC5=O)C3)c12 (stereo partly drawn) [Example 59, 7-(7-(8-ethyl-7-fluoro-3-hydroxynaphthalen-1-yl)-2-(((2R,7aS)-2-fluorohexahydro-1H-pyrrolizin-7a-yl)methoxy)-5,6,7,8-tetrahydropyrido[3,4-d]pyrimidin-4-yl)-1,3,7-triazaspiro[4.5]decane-2,4-dione] | 3 | 8 | 4 | 9 | 40 | 16 | 5 | 25.3 | ≤ 2 | ≤ 2 | ≤ 2 |  |  |  | 181 |  | 44 | 17 |  |
